Measured values published in US8198302B2 (OXiGENE, Inc., priority 2004, dated 2012).

Legend:
tumor cells = test: Tumor cell cytotoxicity, MTT assay; format: cell-based; conditions: tumor cells treated for 24 hours
Procedure: Exponentially growing tumor cells were treated with the following compounds for 24 hours. Insoluble compounds were formulated in a small amount (0.3%) of DMSO for biological evaluation. Cell viability was determined by the calorimetric MTT assay using 3(4,5-dimethylthiazol-2-yl)-2,5-diphenyl-2H-tetrazolium bromide according to well-established procedures (see Berridge, et al. (1996) for a general protocol of this type of assay).

MHEC-5T tumors = test: Reduction in tumor blood flow / functional tumor vessels (fluorescent beads); format: in vivo, mice; conditions: for Blood Flow at 10 mg/kg (% vessel area of control): MHEC-5T tumor-bearing SCID mice, 24 hours after dosing
Procedure: (§1) Catechols were dissolved in 50% DMSO (2 mg/kg) prior to intravenous (iv) administration (i.v.) to tumor-bearing mice. MHEC-5T tumors were established by subcutaneous injection of 0.5×10^6 cultured MHEC5-T cells (German Collection of Microorganisms and Cell Culture, Braunschweig, Germany) into the right flank of Fox Chase CB-17 severe combined immunodeficient (SCID) mice. Tumor grafts grew palpable within one week and reached the limited size (15×15 mm) within 10 days. Tumor bearing mice were injected intraperitoneally with saline control or various dosages of CA1P or CA4P after the transplanted tumor reached a size of 300 mm^3 (a size without development of necrosis). Twenty-four hours later they were injected with 0.25 ml of fluorescent FluoSphere beads (0.1 μm beads conjugated with blue fluorescent tag (F-8789, Molecular Probes, Eugene, Oreg.) and diluted 1:6 in physiological saline) in the tail vein, and sacrificed after 3 minutes. Tumors were then excised for cryosections. Cryosections of 8 μm thickness were directly examined under a fluorescent microscope. Functional blood vessels were indicated by blue fluorescence from injected microbeads. For quantification, three sections from three tumors treated in each group were examined and in each section, more than 70% of the area was automatically recorded with a microscopic digital camera at ×10 magnification. A computer program named Stage Pro (Media Cybernetics, Md.) was used to control the picture recording. Image analysis was performed with Image Plus software (Media Cybernetics, Md.). The results were expressed as vessel area per mm^2 in percentage of the control in Table 2.
as §1, with “The effect of CA1P on tumor blood flow was evaluated by quantifying the number of functional tumor vessels” for “Catechols were dissolved”, “treated murine tumors.” for “50% DMSO (2 mg/kg) prior to intravenous (iv) administration (i.v.) to tumor-bearing mice.”, “as in Example 4c.” for “by subcutaneous injection of 0.5×10^6 cultured MHEC5-T cells (German Collection of Microorganisms and Cell Culture, Braunschweig, Germany) into the right flank of Fox Chase CB-17 severe combined immunodeficient (SCID) mice. Tumor grafts grew palpable within one week and reached the limited size (15×15 mm) within 10 days.”, “MD)” for “Md.)”, “MD).” for “Md.).”, “control.” for “control in Table 2.”

Purified tubulin = test: Inhibition of tubulin polymerization (turbidimetric, 350 nm); format: biochemical; conditions: purified tubulin 1 mg/ml, read-out: Tubulin Binding (uM IC50)
Procedure: The method of Verdier-Pinard (1998, Molec. Pharmacol. 53, 62-76) was used to assay catechol compounds for inhibition of tubulin polymerization. Tubulin polymerization was followed turbidimetrically at 350 nm on an Agilent 8453 spectrophotometer equipped with a kinetics program, a jacketed cell holder, and two microprocessor-controlled water baths. Purified tubulin (1 mg/ml) was induced to polymerize in a monosodium glutamate/GTP solution by a jump in temperature. Absorbance was recorded every 10 seconds and the data was analyzed by a GraphPad Prism program.

[1] = molecular target: T1, Horseradish peroxidase (HRP) (Armoracia rusticana, UniProt P00433); test: Peroxidase-mediated activation of catechols (HPLC loss of peak area); format: biochemical; conditions: for Relative Activation (% Control): relative to non-catechol control = 100; for Slope/Hrp: slope divided by HRP concentration (ug/ml): corrected disappearance
T1 construct: purchased Sigma P6782
T1 sequence (P00433 31-338 limits assumed): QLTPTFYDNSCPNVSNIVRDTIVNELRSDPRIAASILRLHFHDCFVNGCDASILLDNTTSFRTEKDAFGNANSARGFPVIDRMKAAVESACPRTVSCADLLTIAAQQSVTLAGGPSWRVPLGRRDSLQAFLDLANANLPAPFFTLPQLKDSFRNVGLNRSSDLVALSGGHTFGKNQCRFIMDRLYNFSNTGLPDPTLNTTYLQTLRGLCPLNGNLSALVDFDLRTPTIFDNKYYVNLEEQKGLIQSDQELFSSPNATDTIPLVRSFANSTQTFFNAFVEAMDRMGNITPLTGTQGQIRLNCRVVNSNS
Procedure: Methods: catechols were dissolved in DMSO immediately prior to assay (10 mM). HRP (Sigma, P6782, 1000 units/mg), was dissolved in phosphate buffered saline (PBS) at a concentration of 40 ug/ml. Fresh hydrogen peroxide (50 mM) was prepared from a 30% w/w solution (Sigma, H1009). Incubations were carried out in a water bath maintained at 37° C. Exact volumes varied depending on the catechol, but typically they comprised 1.92 ml PBS, 20 μl DMSO, 20 μl hydrogen peroxide and 20 μl drug in a 4 ml amber glass vial. Prior to addition of the drug, the vial was pre-incubated for 10 min. The reaction was initiated by the addition of 20 μl HRP. Samples (100 μl) were then removed at intervals, added to 100 μl acetonitrile and placed on ice. At the end of the incubation, samples were centrifuged (12000 g, 1 min) to remove precipitated protein and the supernatants placed in polypropylene hplc vials for analysis. Control incubations containing no HRP were carried out in the same way.
HPLC was performed using a Waters 2695 Separations Module with a sample compartment maintained at 10° C., and a Waters 2996 Photodiode Array Detector. The column was an ACE C18, 3 μm particle size, 125×3 mm (Hichrom) maintained at 30° C. Compounds were eluted with varying proportions of A: 5 mM KH2PO4, 5 mM H3PO4, and B: 75% acetonitrile, 25% water at a flow rate of […], in order to achieve a similar starting peak area for each catechol. Occasionally, in order to achieve a better resolution of the products, the latter was replaced with 100% methanol. Spectral data was collected from 220 nm to 500 nm, sampling rate 2/sec, 1.2 nm resolution. Data was analysed using Waters Millennium software.
Results: The loss of peak area at 300 nm of the prodrug was plotted against time, and a straight line fitted to the data. Loss of peak area was used to approximate the relative rates of loss of each catechol. The slope of the line-of-best-fit was then divided by the HRP concentration to give a corrected disappearance (see Table 3).

[2] = system: murine adenocarcinoma CaNT; test: Tumor growth control in CaNT murine tumor model; format: in vivo, mice; conditions: single doses of 100, 200, and 400 mg/kg i.p., FIG. 5
Procedure: The murine adenocarcinoma CaNT was grown subcutaneously on the back of 12- to 16-week old CBA/Gy fTO mice. Tumors were initiated by the injection of 0.05 ml of a crude tumor cell suspension prepared from a donor mouse. Animals were selected for treatment after 3 or 4 weeks, when tumors had reached a geometric mean diameter of 5 to 6.5 mm. CA1P and CA4P were dissolved in 0.9% saline at various concentrations and injected intraperitoneally into tumor bearing mice. Each treatment group consisted of between five and nine mice. A control treatment group was injected with 0.9% saline.

[3] = system: murine adenocarcinoma CaNT; test: Functional vascular volume of tumor vessels (Hoechst 333342); format: in vivo, mice
Procedure: The effect of CA1P on tumor blood flow was evaluated by quantification of the functional volume of tumor vessels in treated murine tumors using a procedure previously described in detail and incorporated by reference herein (Smith K A, Br. J. Cancer, 57:247-253, 1988). The murine adenocarcinoma CaNT was grown subcutaneously on the back of 12- to 16-week old CBA/Gy fTO mice. Tumors were initiated by the injection of 0.05 ml of a crude tumor cell suspension prepared from a donor mouse. Animals were selected for treatment after 3 or 4 weeks, when tumors had reached a geometric mean diameter of 5 to 6.5 mm. CA1P and CA4P were dissolved in 0.9% saline at various concentrations and injected intraperitoneally into tumor bearing mice. Each treatment group consisted of between five and nine mice. A control treatment group was injected with 0.9% saline. At 24 hours post-injection, each mouse was injected intravenously with a 10 mg/kg dose of the fluorescent DNA-binding dye Hoechst 333342 and sacrificed 1 minute later. Tumors were immediately excised and bisected. Frozen tumor sections were cut at three levels and viewed under UV excitation where the fluorescent staining of perivascular cells identified perfused vessels. Vascular volumes were quantified based on a random point scoring system previously described and incorporated by reference herein (Chalkley H W, J. Natl Cancer Institute, 4: 47-53, 1943). All estimates were based on counting 100 fields from sections cut at each of the 3 different levels and the calculated vascular volumes were expressed as a percentage of the mean value for control tumors.

tubulin = conditions: cited from earlier work
[4] = cited from earlier work

Row | SMILES | IC50 (tumor cells; 24 h) [µM] | Relative Activation (% Control) [1] [% Control] | Slope/Hrp [1] | other results
1 | COc1cc(/C=C\c2ccc(O)c(O)c2O)cc(OC)c1OC | 0.069 |  |  | Blood Flow at 10 mg/kg (% vessel area of control) (MHEC-5T tumors): 26.7 % vessel area of control
2 | COc1cc(/C=C\c2cccc(O)c2O)cc(OC)c1OC [ZSB-82, 6-[(Z)-2-(3,4,5-Trimethoxyphenyl)vinyl]-1,2-dihydroxybenzene] | 0.143 | 0.029 | −1269800 | IC50 (Purified tubulin): 6.2 µM
3 | COc1cc(/C=C\c2ccc(F)c(O)c2O)cc(OC)c1OC | 0.546 | 0.006 | −6675900 | 
4 | COc1cc(/C=C\c2cc(-c3ccccc3)cc(O)c2O)cc(OC)c1OC [ZSB-80, 4-Phenyl-6-[(Z)-2-(3,4,5-trimethoxyphenyl)vinyl]-1,2-dihydroxybenzene] |  | 0.017 | −2158250 | IC50 (tumor cells): 1.56 µM
5 | CCOc1ccc(/C=C\c2cc(OC)c(OC)c(OC)c2)c(O)c1O [ZSB-81] |  |  |  | IC50 (tumor cells): 0.094 µM
6 | CCc1ccc(/C=C\c2cc(OC)c(OC)c(OC)c2)c(O)c1O [ZSB-76, 3-Ethyl-6-[(Z)-2-(3,4,5-trimethoxyphenyl)vinyl]-1,2-dihydroxybenzene] | 0.542 | 6.743 | −5502 | 
7 | COc1cc(/C=C\c2cc(Br)cc(O)c2O)cc(OC)c1OC [ZSB-74, 4-Bromo-6-[(Z)-2-(3,4,5-trimethoxyphenyl)vinyl]-1,2-dihydroxybenzene] | 0.34 | 0.203 | −182825 | IC50 (Purified tubulin): 2.1 µM
8 | C=CCc1ccc(/C=C\c2cc(OC)c(OC)c(OC)c2)c(O)c1O [ZSB-77, 3-Allyl-6-[(Z)-2-(3,4,5-trimethoxyphenyl)vinyl]-1,2-dihydroxybenzene] | 0.748 | 1.875 | −19783 | 
9 | COc1ccc(/C=C\c2cc(OC)c(OC)c(OC)c2)cc1OP(=O)([O-])[O-].[Na+].[Na+] [CA4P, Combretastatin A-4 Disodium Phosphate Prodrug, reference compound] |  |  |  | effect on tumor growth [2]: no measurable effect on tumor growth; effect on vascular volume ([3]; doses below 50 mg/kg i.p.): no significant effect; dose required to produce an effect similar to that of 1 mg/kg of CA1P ([3]; functional vascular volume): 25 mg/kg; ED50 (vascular effect) (MHEC-5T tumors; functional vessel number per mm^2, i.p., 24 hr, MHEC-5T tumors): 43 mg/kg; blood flow in the central region of tumors (MHEC-5T tumors; spatial distribution of blood vessel shutdown): blood flow reduction
10 | COc1cc(/C=C\c2ccc(C)c(O)c2O)cc(OC)c1OC [ZSB-75, 3-Methyl-6-[(Z)-2-(3,4,5-trimethoxyphenyl)vinyl]-1,2-dihydroxybenzene] | 0.9 | 1.703 | −21783 | 
11 | C=CCOc1ccc(/C=C\c2cc(OC)c(OC)c(OC)c2)c(O)c1O | 0.007 |  | −16925 | Blood Flow at 10 mg/kg (% vessel area of control) (MHEC-5T tumors): 60 % vessel area of control
12 | COc1cc(/C=C\c2ccc([N+](=O)[O-])c(O)c2O)cc(OC)c1OC | 0.28 |  | −1902300 | 
13 | COc1ccc(/C=C\c2cc(OC)c(OC)c(OC)c2)cc1O [CA-4, Combretastatin A-4] |  |  |  | tubulin binding activity (tubulin): potent; solubility in human plasma [4]: insolubility
14 | COc1cc(/C=C\c2cccc(OP(=O)([O-])[O-])c2OP(=O)([O-])[O-])cc(OC)c1OC.[Na+].[Na+].[Na+].[Na+] [ZSB-36, 2′,3′diphosphate-3,4,5-trimethoxy-(Z)-stilbene, tetrasodium salt] |  |  |  | IC50 (tumor cells): 0.4 µM; Blood Flow at 10 mg/kg (% vessel area of control) (MHEC-5T tumors): 94 % vessel area of control
